Laboratory results reported in ChEMBL document CHEMBL1153522, “Spirocyclic delta opioid receptor agonists for the treatment of pain: discovery of N,N-diethyl-3-hydroxy-4-(spiro[chromene-2,4'-piperidine]-4-yl) benzamide (ADL5747)” (J Med Chem, 2009).

Experiments:
[1] = species on record: Canis familiaris; assay: Plasma concentration in Beagle dog after 15 to 30 mins; type: ADME, organism-based, Canis lupus familiaris; settings: in vivo
[2] = AUC (0 to infinity) in Beagle dog at 1 mg/kg, iv administered as single dose; type: ADME, organism-based, Canis lupus familiaris; set-up: time infinity, dose 1 mg/kg, route intravenous; settings: plasma
[3] = system: CYP2C19; assay: In vitro stability in presence of human CYP2C19 assessed as compound remaining at 1 uM after 1 hr; type: ADME; settings: read-out: Stability
[4] = Tmax in rat at 10 mg/kg, po administered as single dose; type: ADME, organism-based; set-up: dose 10 mg/kg, route oral; settings: in vivo
[5] = AUC (0 to infinity) in Beagle dog at 3 mg/kg, po administered as single dose; type: ADME, organism-based, Canis lupus familiaris; set-up: time infinity, dose 3 mg/kg, route oral; settings: plasma
[6] = Oral bioavailability in Beagle dog at 3 mg/kg administered as single dose; type: ADME, organism-based, Canis lupus familiaris; settings: in vivo
[7] = Volume of distribution at steady state in rat at 2.5 mg/kg, iv administered as single dose; type: ADME, organism-based; set-up: dose 2.5 mg/kg, route intravenous; settings: in vivo, read-out: Vdss
[8] = Cmax in Beagle dog at 3 mg/kg, po administered as single dose; type: ADME, organism-based, Canis lupus familiaris; set-up: dose 3 mg/kg, route oral; settings: in vivo
[9] = Systemic clearance in Beagle dog at 1 mg/kg, iv administered as single dose; type: ADME, organism-based, Canis lupus familiaris; set-up: dose 1 mg/kg, route intravenous; settings: in vivo
[10] = Metabolic stability in rat liver microsomes assessed as compound remaining after 30 mins; type: ADME, Microsome; settings: read-out: Stability
[11] = Half life in rat at 2.5 mg/kg, iv administered as single dose; type: ADME, organism-based; set-up: dose 2.5 mg/kg, route intravenous; settings: in vivo
[12] = Half life in rat at 10 mg/kg, po administered as single dose; type: ADME, organism-based; set-up: dose 10 mg/kg, route oral; settings: in vivo
[13] = Cmax in rat at 10 mg/kg, po administered as single dose; type: ADME, organism-based; set-up: dose 10 mg/kg, route oral; settings: in vivo
[14] = Tmax in Beagle dog at 3 mg/kg, po administered as single dose; type: ADME, organism-based, Canis lupus familiaris; set-up: dose 3 mg/kg, route oral; settings: in vivo
[15] = Systemic clearance in rat at 2.5 mg/kg, iv administered as single dose; type: ADME, organism-based; set-up: dose 2.5 mg/kg, route intravenous; settings: in vivo
[16] = system: Rattus norvegicus; assay: fAUC in rat plasma at 30 mg/kg, po administered as single dose after 6 hrs; type: ADME, organism-based; set-up: dose 30 mg/kg, route oral; settings: in vivo
[17] = AUC in rat brain raphe magnus at 30 mg/kg, po administered as single dose after 6 hrs; type: ADME, organism-based; set-up: dose 30 mg/kg, route oral; settings: read-out: Drug uptake
[18] = Oral bioavailability in rat at 10 mg/kg administered as single dose; type: ADME, organism-based; settings: in vivo
[19] = system: CYP3A4; assay: In vitro stability in presence of human CYP3A4 assessed as compound remaining at 1 uM after 1 hr; type: ADME; settings: read-out: Stability
[20] = Metabolic stability in human liver microsomes assessed as compound remaining after 30 mins; type: ADME, Microsome; settings: read-out: Stability
[21] = Half life in Beagle dog at 1 mg/kg, iv administered as single dose; type: ADME, organism-based, Canis lupus familiaris; set-up: dose 1 mg/kg, route intravenous; settings: in vivo
[22] = system: CYP2D6; assay: In vitro stability in presence of human CYP2D6 assessed as compound remaining at 1 uM after 1 hr; type: ADME; settings: read-out: Stability
[23] = AUC (0 to infinity) in rat at 2.5 mg/kg, iv administered as single dose; type: ADME, organism-based; set-up: time infinity, dose 2.5 mg/kg, route intravenous; settings: plasma
[24] = Metabolic stability in Beagle dog liver microsomes assessed as compound remaining after 30 mins; type: ADME, Canis lupus familiaris, Microsome; settings: read-out: Stability
[25] = AUC in rat plasma at 30 mg/kg, po administered as single dose after 6 hrs; type: ADME, organism-based; set-up: time < 6 hr, dose 30 mg/kg, route oral
[26] = Half life in Beagle dog at 3 mg/kg, po administered as single dose; type: ADME, organism-based, Canis lupus familiaris; set-up: dose 3 mg/kg, route oral; settings: in vivo
[27] = AUC (0 to infinity) in rat at 10 mg/kg, po administered as single dose; type: ADME, organism-based; set-up: time infinity, dose 10 mg/kg, route oral; settings: plasma
[28] = Volume of distribution at steady state in Beagle dog at 1 mg/kg, iv administered as single dose; type: ADME, organism-based, Canis lupus familiaris; set-up: dose 1 mg/kg, route intravenous; settings: in vivo, read-out: Vdss

**Q.** Which results are given for `CCN(CC)C(=O)c1ccc(C2=CC3(CCNCC3)Oc3ccccc32)c(O)c1` [ADL-5747 FREE BASE]?
**A.** Cp [1]: 808 ng/mL; AUC(0-inf) [2]: 2640 ng·h/mL; remaining at 1 h, 1 µM [3]: 78.4%; Tmax [4]: 1.3 h; AUC(0-inf) [5]: 4200 ng·h/mL; bioavailability [6]: 54.5%; Vd [7]: 18.1 L/kg; Cmax [8]: 852 ng/mL; clearance [9]: 6.33 mL/min/kg; remaining at 0.5 h [10]: 59.7%; half-life [11]: 5.3 h; half-life [12]: 4.9 h; Cmax [13]: 246 ng/mL; Tmax [14]: 0.4 h; clearance [15]: 55 mL/min/kg; fAUC [16]: 990 ng·h/mL; AUC at 6 h [17]: 105 ng·h/mL; bioavailability [18]: 37.6%; remaining at 1 h, 1 µM [19]: 22.5%; remaining at 0.5 h [20]: 94.5%; half-life [21]: 12.2 h; remaining at 1 h, 1 µM [22]: 63.2%; AUC(0-inf) [23]: 780 ng·h/mL; remaining at 0.5 h [24]: 63.9%; AUC at 6 h [25]: 4610 ng·h/mL; half-life [26]: 7.7 h; AUC(0-inf) [27]: 1150 ng·h/mL; Vd [28]: 5.1 L/kg
